ChEMBL document CHEMBL1124870, “2-(4-Amino-4-carboxybutyl)aziridine-2-carboxylic acid. A potent irreversible inhibitor of diaminopimelic acid epimerase. Spontaneous formation from alpha-(halomethyl)diaminopimelic acids” (J Med Chem, 1990)
pKd: −log10 of the molar value.

Experiments:
[1] = Dissociation constant value of the compound; type: physicochemical; conditions: read-out: Ki/ki
[2] = system: Escherichia coli; test: Concentration at which first-order inactivation was observed by the inhibition of Diaminopimelate epimerase
[3] = Rate of formation of aziridine under physiological conditions; type: ADME

k0 [3]	kik0/Ki [3]	SMILES	pKd [1]	Concentration [2]
		NC(CCCC1(C(=O)O)CN1)C(=O)O (stereo unspecified)	5.26	2 µM
0.000079 min⁻¹	0.0000145 uM-1 min**-2	NC(CCCC(N)(CF)C(=O)O)C(=O)O (stereo unspecified)		
0.011 min⁻¹	0.002 µM-1 min··-2	NC(CCCC(N)(CCl)C(=O)O)C(=O)O (stereo unspecified)		
